Where two headings read alike, the source gives them in different places.
Assays:
[1] = biological target: T1, 5α-reductase type 1 isozyme (Rattus norvegicus, UniProt P24008); experiment: Enzyme inhibition test, 5α-reductase type 1 (pH 6.6); type: biochemical
T1 sequence (P24008 1-259): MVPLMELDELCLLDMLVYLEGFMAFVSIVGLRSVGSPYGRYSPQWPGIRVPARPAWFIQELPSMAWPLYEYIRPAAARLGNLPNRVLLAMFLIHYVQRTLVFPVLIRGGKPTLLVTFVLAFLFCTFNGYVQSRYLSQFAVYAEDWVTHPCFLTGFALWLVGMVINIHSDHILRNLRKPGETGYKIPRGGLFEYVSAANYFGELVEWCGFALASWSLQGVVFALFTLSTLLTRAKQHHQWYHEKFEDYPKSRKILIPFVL
Description: (§1) Female rats were sacrificed and liver were taken within 5 min. All the following steps were performed at 0–4 °C. 1 g liver was cut into 3 mm pieces and added to 3 times volume of PBS. The tissue was homogenized and centrifuged at 10,000 g for 30 min. The supernatant was collected and centrifuged repeatedly at 100,000 for 1 h. The pellet obtained was resuspended in phosphate buffer (contained 30% glycerol, 1:3 v/v) and stored at −70 °C. The incubation mixture contained 50 µL enzyme solution, 6 µL NADPH (80 µM), 6 µL T (20 µM), and 108 µL buffer with or without test compound. The negative control contained 50 µL enzyme solution, 6 µL NADPH (80 µM) and 114 µL buffer. The incubation was carried out for 30 min at 37 °C. The fluorescence decay rate was tested in 10 min at 37 °C.
(§2) The inhibitory activities of the synthesized compounds were then assessed towards the 5α-reductase 1 and 2 isozymes, respectively. Finasteride was used as positive control.

[2] = biological target: T2, 5α-reductase type 2 isozyme (Rattus norvegicus, UniProt P31214); experiment: Enzyme inhibition test, 5α-reductase type 2 (pH 5.5); type: biochemical
T2 sequence (P31214 1-254): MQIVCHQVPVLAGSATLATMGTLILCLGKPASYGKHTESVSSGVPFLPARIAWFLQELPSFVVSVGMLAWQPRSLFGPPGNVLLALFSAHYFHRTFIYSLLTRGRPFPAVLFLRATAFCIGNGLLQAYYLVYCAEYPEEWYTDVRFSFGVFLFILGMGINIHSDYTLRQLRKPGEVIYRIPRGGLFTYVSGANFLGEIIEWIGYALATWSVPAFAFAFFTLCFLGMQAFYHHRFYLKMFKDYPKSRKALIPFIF
Description: as §1, §2

22RV1 cells = experiment: MTT anti-proliferation assay, T-stimulated 22RV1; type: cell-based, Human; details: for Effect on cell viability of T-treated 22RV1 cells: different concentrations of compound with 0.1 μM T, Figure 3
Description: Human prostate carcinoma 22RV1 (CRL-2505, ATCC) and PC-3 (CRL-1435, ATCC) cells were cultured in RPMI-1640 medium (Invitrogen), supplemented with 10% (v/v) foetal calf serum (FCS) (Invitrogen), 1% (v/v), penicillin and streptomycin (Invitrogen) at 37 °C with 5% CO2 in a humidified atmosphere. Fresh medium was given every second day and on the day before the experiments were done. Cells were passaged at preconfluent densities, using a solution containing 0.05% trypsin.
The anti-cancer activity in vitro was measured using the MTT assay. Exponentially growing cells were harvested and plated in 96-well plates at a concentration of 1 × 10^4 cells/well. After 24 h incubation at 37 °C under a humidified 5% CO2 to allow cell attachment, the cells in the wells were respectively treated with target compounds at various concentrations for 48 h. […] A solution of 3–(4,5-dimethylthizao1-2-y1)-2,5-diphenyltetrazolium bromide (MTT), was prepared at 5 mg/ml in phosphate buffered saline (PBS: 1.5 mM KH2PO4, 6.5 mM Na2HPO4, 137 mM NaCl, 2.7 mM KCl; pH 7.4). Of this solution 20 µl was added to each well. After incubation for 4 h at 37 °C in a humidified incubator with 5% CO2, the medium/MTT mixtures were removed, and the formazan crystals formed by the mitochondrial dehydrogenase activity of vital cells were dissolved in 100 µl of DMSO per well. The absorbance of the wells was read with a microplate reader at 570 nm. Effects of the drug cell viability were calculated using cell treated with DMSO as control.
The anti-proliferative activities were firstly evaluated against 22RV1 stimulated by 0.1 µM T or not. […] Although androst[3,2-c]pyrazoleis common in anabolic steroid, luckily these derivatives shown no androgen agonistic activity. The phenethylamino substituted compounds (7d, 8d, and 9d) and piperidine substituted compounds (7b, 8b, and 9b) were more efficient than others. […] As presented in Figure 3, 0.1 µm of T was selectedas the most adequate to induce proliferation of 22RV1 cells. […] Compound 9d caused a much more significant decrease in cell viability for all concentrations than flutamide. […]

[3] = 1 μM compound, pH 6.6, rat liver enzyme preparation, read-out: Type 1 (pH 6.6) Inh% (1 μM)
[4] = 1 μM compound, pH 5.5, rat liver enzyme preparation, read-out: Type 2 (pH 5.5) Inh% (1μM)
[5] = pH 6.6, rat liver enzyme preparation, read-out: Type 1 (pH 6.6) IC50
[6] = pH 6.6, read-out: Type 1 (pH 6.6) Inh% (1 μM)
[7] = pH 5.5, read-out: Type 2 (pH 5.5) Inh% (1μM)

## CC(C)CNC(=O)[C@H]1CCC2C3CCC4=CC(=O)/C(=C\O)C[C@]4(C)C3CC[C@@]21C (stereo partly drawn) [Compound 7a, 2-hydroxymethylene-17β-(N-isobutyl-carboxamide)-androst-4-ene-3-one]
[1]; [3]
  inhibition at 1 µM: 25 ± 9.68%
[2]; [4]
  inhibition at 1 µM: 24.2 ± 1.13%
other
  melting point: 152 to 158 °C

## CCN(CC)C(=O)[C@H]1CCC2C3CCC4=Cc5n[nH]cc5C[C@]4(C)C3CC[C@@]21C (stereo partly drawn) [Compound 9c, 17β-(N,N-diethy-carboxamide)-androst[3,2-c]pyrazole-4-ene]
[1]; [3]
  inhibition at 1 µM: 68 ± 12%
[1]; [5]
  IC50: 520 ± 60 nM
[2]; [4]
  inhibition at 1 µM: 63.6 ± 12.5%
other
  melting point: 111 to 118 °C

## C[C@]12Cc3c[nH]nc3C=C1CCC1C2CC[C@@]2(C)C1CC[C@@H]2C(=O)N1CCCCC1 (stereo partly drawn) [Compound 9b, 17β-(Piperidine-1-carbonyl)-androst[3,2-c]pyrazole-4-ene]
[1]; [3]
  inhibition at 1 µM: 59.2 ± 2.28%
[1]; [5]
  IC50: 630 ± 140 nM
[2]; [4]
  inhibition at 1 µM: 49.6 ± 5.75%

## C[C@]12CC[C@H]3[C@@H](CCC4=CC(=O)C(=CO)C[C@@]43C)[C@@H]1CC[C@@H]2C(=O)NC1CC1 [Compound 7e, 2-hydroxymethylene-17β-(N-cyclopropylamino-carbonyl)-androst-4-ene-3-one]
[1]; [3]
  inhibition at 1 µM: 54.7 ± 5.94%
[2]; [4]
  inhibition at 1 µM: 45.8 ± 9.86%
other
  melting point: 125 to 130 °C

## COc1ccc(CCNC(=O)[C@H]2CCC3C4CCC5=CC(=O)/C(=C\O)C[C@]5(C)C4CC[C@@]32C)cc1OC (stereo partly drawn) [Compound 7d, 2-hydroxymethylene-17β-(N-(3,4-dimethoxyphenethyl)-carboxamide)-androst-4-ene-3-one]
[1]
  IC50: 580 ± 60 nM
[1]; [6]
  inhibition at 1 µM: 66.4 ± 4.37%
[2]; [7]
  inhibition at 1 µM: 69 ± 9.3%
other
  melting point: 121 to 129 °C

## C[C@]12Cc3c[nH]nc3C=C1CCC1C2CC[C@@]2(C)C1CC[C@@H]2C(=O)NC1CC1 (stereo partly drawn) [Compound 9e, 17β-(N-cyclopropylamino-carbonyl)-androst[3,2-c]pyrazole-4-ene]
[1]
  IC50: 230 ± 90 nM
[1]; [6]
  inhibition at 1 µM: 70.8 ± 9.74%
[2]; [7]
  inhibition at 1 µM: 79.4 ± 2.47%

## CC(C)C(=O)Nc1ccc([N+](=O)[O-])c(C(F)(F)F)c1 [flutamide, reference compound]
22RV1 cells
  Effect on cell viability of T-treated 22RV1 cells: inhibited cell proliferation in a dose-dependent manner

## C=C1C[C@@]2(C)C(=CC1=O)CCC1C2CC[C@@]2(C)C1CC[C@@H]2C(=O)NCCc1ccc(OC)c(OC)c1 (stereo partly drawn) [Compound 8d, 2-methylene-17β-(N-(3,4-dimethoxyphenethyl)-carboxamide)-androst-4-ene-3-one]
[1]; [3]
  inhibition at 1 µM: 24.8 ± 9.02%
[2]; [4]
  inhibition at 1 µM: 26.1 ± 10.3%
other
  melting point: 74 to 78 °C

## C=C1C[C@@]2(C)C(=CC1=O)CC[C@H]1[C@@H]3CC[C@H](C(=O)NC4CC4)[C@@]3(C)CC[C@@H]12 [Compound 8e, 2-methylene-17β-(N-cyclopropylamino-carbonyl)-androst-4-ene-3-one]
[1]; [3]
  inhibition at 1 µM: 34.1 ± 10.1%
[2]; [4]
  inhibition at 1 µM: 20.9 ± 10.1%
other
  melting point: 135 to 142 °C

## C=C1C[C@@]2(C)C(=CC1=O)CCC1C2CC[C@@]2(C)C1CC[C@@H]2C(=O)N(CC)CC (stereo partly drawn) [Compound 8c, 2-methylene-17β-(N,N-diethy-carboxamide)-androst-4-ene-3-one]
[1]; [3]
  inhibition at 1 µM: 25.8 ± 4.22%
[2]; [4]
  inhibition at 1 µM: 18.3 ± 4.61%
other
  melting point: 98 to 105 °C

## CC(C)CNC(=O)[C@H]1CCC2C3CCC4=Cc5n[nH]cc5C[C@]4(C)C3CC[C@@]21C (stereo partly drawn) [Compound 9a, 17β-(N-isobutyl-carboxamide)-androst[3,2-c]pyrazole-4-ene]
[1]; [3]
  inhibition at 1 µM: 53.1 ± 9.71%
[2]; [4]
  inhibition at 1 µM: 48.7 ± 3.08%

## C=C1C[C@@]2(C)C(=CC1=O)CCC1C2CC[C@@]2(C)C1CC[C@@H]2C(=O)NCC(C)C (stereo partly drawn) [Compound 8a, 2-methylene-17β-(N-isobutyl-carboxamide)-androst-4-ene-3-one]
[1]; [3]
  inhibition at 1 µM: 31.1 ± 6.49%
[2]; [4]
  inhibition at 1 µM: 19.9 ± 12.9%
other
  melting point: 168 to 175 °C

## CC(C)(C)NC(=O)[C@H]1CC[C@H]2[C@@H]3CC[C@H]4NC(=O)C=C[C@]4(C)[C@H]3CC[C@]12C [Finasteride, finasteride, reference compound]
[1]; [3]
  inhibition at 1 µM: 73.7 ± 4.22%
[2]; [7]
  inhibition at 1 µM: 70 ± 4.12%

## CCN(CC)C(=O)[C@H]1CCC2C3CCC4=CC(=O)/C(=C\O)C[C@]4(C)C3CC[C@@]21C (stereo partly drawn) [Compound 7c, 2-hydroxymethylene-17β-(N,N-diethy-carboxamide)-androst-4-ene-3-one]
[1]; [3]
  inhibition at 1 µM: 27.9 ± 4.01%
[2]; [4]
  inhibition at 1 µM: 24.5 ± 8.47%
other
  melting point: 153 to 159 °C

## C[C@]12CC[C@H]3[C@@H](CCC4=CC(=O)C(=CO)C[C@@]43C)[C@@H]1CC[C@@H]2C(=O)N1CCCCC1 [Compound 7b, 2-hydroxymethylene-17β-(piperidine-1-carbonyl)-androst-4-ene-3-one]
[1]; [3]
  inhibition at 1 µM: 52.2 ± 12.3%
[2]; [4]
  inhibition at 1 µM: 49.9 ± 3.08%
other
  melting point: 105 to 110 °C

## C=C1C[C@@]2(C)C(=CC1=O)CC[C@H]1[C@@H]3CC[C@H](C(=O)N4CCCCC4)[C@@]3(C)CC[C@@H]12 [Compound 8b, 2-methylene-17β-(piperidine-1-carbonyl)-androst-4-ene-3-one]
[1]; [3]
  inhibition at 1 µM: 35.8 ± 9.58%
[2]; [4]
  inhibition at 1 µM: 21.2 ± 1.31%

## COc1ccc(CCNC(=O)[C@H]2CCC3C4CCC5=Cc6n[nH]cc6C[C@]5(C)C4CC[C@@]32C)cc1OC (stereo partly drawn) [Compound 9d, 17β-(N-(3,4-dimethoxyphenethyl)-carboxamide)-androst[3,2-c]pyrazole-4-ene]
[1]
  IC50: 90 ± 20 nM
[1]; [6]
  inhibition at 1 µM: 80.1 ± 6.73%
[2]; [7]
  inhibition at 1 µM: 71.9 ± 3.4%
22RV1 cells; Homo sapiens, 22Rv1, 48 h, read-out: IC50 anti-proliferative activity against 22RV1, T-stimulated group
  IC50: 8850 nM
22RV1 cells
  Effect on cell viability of T-treated 22RV1 cells: inhibited cell proliferation in a dose-dependent manner

Source: publication PMC6735293, “Design, synthesis, and biological evaluation of novel androst-17β-amide structurally related compounds as dual 5α-reductase inhibitors and androgen receptor antagonists” (Journal of Enzyme Inhibition and Medicinal Chemistry, 2019)
